The numbers were not newly measured in patent US11998629B2, “Method for dyeing keratinous material, comprising the use of an organosilicon compound, an effect pigment and a film-forming polymer” (Henkel AG & Co. KGaA, priority 2019, dated 2024), which cites them from elsewhere.

The conditions of this data set: 25° C.

For the molecule `CCN(Cc1cccc(S(=O)(=O)[O-])c1)c1ccc(C(=C2C=CC(=[N+](CC)Cc3cccc(S(=O)(=O)[O-])c3)C=C2)c2ccccc2S(=O)(=O)[O-])cc1.[Na+].[Na+]` [Acid Blue 9], the water solubility result is listed as “greater than 20 % by weight”. As to `O=S(=O)([O-])c1ccc(N=Nc2c(O)ccc3ccccc23)cc1.[Na+]` [Acid Orange 7, sodium salt of 4-[(2-hydroxy-1-naphthyl)azo]benzenesulfonate], the solubility in water entry is listed as “more than 7 g/L”.

`O=C([O-])C1=NN(c2ccc(S(=O)(=O)[O-])cc2)C(=O)C1N=Nc1ccc(S(=O)(=O)[O-])cc1.[Na+].[Na+].[Na+]` (stereo not drawn) [Acid Yellow 23, trisodium salt of 4,5-dihydro-5-oxo-1-(4-sulfophenyl)-4-((4-sulfophenyl)azo)-1H-pyrazole-3-carboxylic acid]: the “solubility in water (in words)” value was “readily soluble”.

Turning to `O=C([O-])c1c(Cl)c(Cl)c(Cl)c(Cl)c1-c1c2c(Br)cc(=O)c(Br)c-2oc2c(Br)c(O)cc(Br)c12.O=C([O-])c1c(Cl)c(Cl)c(Cl)c(Cl)c1-c1c2c(Br)cc(=O)c(Br)c-2oc2c(Br)c(O)cc(Br)c12.[Na+].[Na+]` [Acid Red 92, disodium salt of 3,4,5,6-tetrachloro-2-(1,4,5,8-tetrabromo-6-hydroxy-3-oxoxanthen-9-yl)benzoic acid], the solubility in water result is recorded as “greater than 10 g/L”. Regarding “mixture of the sodium salts of mono- and disulfonic acids of 2-(2-quinolyl)-1H-indene-1,3(2H)-dione [Acid Yellow 3]”, the solubility in water is 20 mg/mL. As for `Nc1cc(S(=O)(=O)[O-])cc2cc(S(=O)(=O)[O-])c(N=Nc3ccccc3)c(O)c12.[Na+].[Na+]` [Acid Red 33, disodium salt of 5-amino-4-hydroxy-3-(phenylazo)-naphthalene-2,7-disulphonate], the solubility in water is 2.5 mg/mL.
